Structures are written as SMILES. Where two headings read alike, the source gives them in different places.

The target in one test is AKT (Homo sapiens, UniProt P31749). The experiment in a line: RBC HotSpot kinase assay (33P-ATP, P81 filter-binding), AKT. Format: biochemical. The note with it: read-out: AKT IC50. The essentials: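 Radiometric 33P-ATP kinase reaction in 20 mM Hepes pH 7.5, 10 mM MgCl2, 1 mM EGTA, 0.01% Brij35, 0.02 mg/ml BSA, 0.1 mM Na3VO4, 2 mM DTT, 1% DMSO. Compound preincubated with kinase and substrate 20 min, then 2 h at room temperature; P81 filter-binding read-out. IC50 (nM) from 10-point singlet curves.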

The target in test [1] is T1, AKT Kinase-NanoLuc fusion in HEK-293 cells (Homo sapiens, UniProt P31749).
T1 construct: host or cells: HEK-293
The experiment in a line: NanoBRET target engagement assay in transfected HEK-293 cells, AKT. Format: cell-based. The note with it: HEK-293 cells. An excerpt:
The NanoBRET™ assay measures kinase engagement in real time in the context of the intact cell. The assay uses a Kinase-NanoLuc® fusion vector expressing a kinase protein to which a luciferase tag has been added, a cell-permeant fluorescent NanoBRET™ tracer, a NanoLuc® substrate, and an extracellular NanoLuc® inhibitor. Upon expression of the luciferase-tagged kinase, cells will produce a strong BRET signal only in the presence of the NanoBRET™ tracer. The extracellular NanoLuc® inhibitor ensures that the BRET signal observed emanates only from live cells. Because the BRET signal has tight distance constraints, addition of the test compound will decrease the BRET signal if the compound competes with the NanoBRET™ tracer for binding to the kinase domain. Under the appropriate tracer conditions established by the manufacturer, quantitative intracellular affinity and relative potency can then be determined using Mass Action model equations.
HEK-293 cells were purchased from ATCC. FuGENEHD Transfection Reagent, Kinase-NanoLuc® fusion plasmids, Transfection Carrier DNA, NanoBRET™ Tracers and dilution buffer, NanoBRET™ Nano-Glo Substrate, Extracellular NanoLuc® Inhibitor were obtained from Promega.
Assays were conducted following Promega assay protocol with some modifications as described further below. HEK-293 Cells were transiently transfected with Kinase-NanoLuc® Fusion Vector DNA by FuGENE HD Transfection Reagent. Test compounds were delivered into 384 well assay plate by Echo 550 (Labcyte Inc, Sunnyvale, CA). Transfected cells were harvested and mixed with NanoBRET™ Tracer Reagent and dispensed into 384 well plates and incubated at 37° C. in 5% CO2 cell culture incubator for 1 hour. The NanoBRET™ Nano-Glo Substrate plus Extracellular NanoLuc® Inhibitor Solution were added into the wells of the assay plate and incubated for 2-3 minutes at room temperature. The donor emission wavelength (460 nm) and acceptor emission wavelength (600 nm) were measured in the EnVision plate reader. The BRET Ratios were calculated. BRET Ratio=[(Acceptor sample÷Donor sample)−(Acceptor no-tracer control÷Donor no-tracer control)]. The IC50 values of compounds were calculated with Prism GraphPad program.
• 1. Transient Transfection of HEK-293 Cells NanoLuc® Fusion Vector DNA • 1). Cultivate HEK-293 cells (70-80% confluence) appropriately prior to assay. Trypsinize and collect HEK-293 cells. • 2). Prepare lipid: DNA complexes as follows: • a. Prepare a […] solution of DNA in Opti-MEM™ without serum that consists of the following ratios of carrier DNA and DNA encoding NanoLuc® fusion. 9.0 µg/mL of Transfection Carrier DNA, […] of NanoLuc® fusion vector DNA and 1 mL of Opti-MEM™ without phenol red. Mix thoroughly. • b. Add 30 μl of FuGENE HD Transfection Reagent into each milliliter of DNA mixture to form lipid: DNA complex. • c. Mix by inversion 10 times. • d. Incubate at ambient temperature for 20 minutes to allow complexes to form. • 3). In a sterile, conical tube, mix 1 part of lipid: DNA complex with 20 parts of HEK-293 cells in suspension. Mix gently by inversion 5 times. • 4). Dispense cells+lipid: DNA complex into a sterile tissue culture dish and incubate for 22-24 hours. • 2. Addition of Test Compounds (dry plate shooting): Each test compound is delivered from the compound source plate to the wells of 384-well white NBS plate by Echo 550. • 3. Preparation of Cells with NanoBRET™ Tracer Reagent • 1). Remove medium from dish with transfected HEK-293 cells via aspiration, trypsinize and allow cells to dissociate from the dish. • 2). Neutralize trypsin using medium containing serum and centrifuge at 200× g for 5 minutes to pellet the cells. Adjust the cell density to 2×10^5 cells/mL in Opti-MEM™ without phenol red. • 3). Prepare Complete 20× NanoBRET™ Tracer Reagent with Tracer Dilution Buffer. • 4). Dispense one part of Complete 20× NanoBRET™ Tracer Reagent to 20 parts of cells in the tube. Mix gently by inversion 10 times. • 5). […]

The mark [2] stands for this setting: Table 28, biochemical kinase assay.
Setting [3] is: Table 28, NanoBRET, read-out: AKT1 (Cellular) IC50.
Setting [4] is: Table 32, biochemical kinase assay.
Where [5] appears, read: Table 32, NanoBRET, read-out: AKT (Cellular) IC50.

Chain of AKT (P31749 whole entry): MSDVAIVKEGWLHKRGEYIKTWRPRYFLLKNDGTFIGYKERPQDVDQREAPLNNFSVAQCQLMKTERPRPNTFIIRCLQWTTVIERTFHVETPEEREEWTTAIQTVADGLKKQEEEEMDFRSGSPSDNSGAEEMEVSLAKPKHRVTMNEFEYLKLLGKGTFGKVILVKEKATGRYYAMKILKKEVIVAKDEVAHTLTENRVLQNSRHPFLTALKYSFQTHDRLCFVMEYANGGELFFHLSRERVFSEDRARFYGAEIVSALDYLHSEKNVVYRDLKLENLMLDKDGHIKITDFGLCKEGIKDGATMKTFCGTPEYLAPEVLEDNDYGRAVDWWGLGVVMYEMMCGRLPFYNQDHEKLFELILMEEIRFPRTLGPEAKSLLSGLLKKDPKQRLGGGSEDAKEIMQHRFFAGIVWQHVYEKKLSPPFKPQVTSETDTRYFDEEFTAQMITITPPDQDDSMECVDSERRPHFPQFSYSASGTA
T1 sequence (P31749 whole entry, the tested form may be a part): as the sequence (P31749 whole entry) above

Take `NCc1ccc(-c2ccnc3[nH]cc(-c4ccccc4)c23)cc1` [Compound 253, (4-(3-phenyl-1H-pyrrolo[2,3-b]pyridin-4-yl)phenyl) methanamine]: the values for the concentration for half-maximal inhibition (IC50) (on AKT (setting [2]); in test [1] (setting [3])) were 983 nM and 338 nM, respectively.
For `Cc1cc(-c2ccnc3[nH]cc(Cl)c23)ccc1CN` [Compound 254, (4-(3-chloro-1H-pyrrolo[2,3-b]pyridin-4-yl)-2-methylphenyl) methanamine], in that order: 116 nM and 3910 nM.
In the same order, the values of `Cc1cc(-c2ccnc3[nH]ccc23)ccc1CN` [Compound 266, (2-methyl-4-(1H-pyrrolo[2,3-b]pyridin-4-yl)phenyl) methanamine] are 249 nM and above 50000 nM.
For `c1cc(-c2ccc3c(c2)CCNC3)c2cc[nH]c2n1` [Compound 267, 6-(1H-pyrrolo[2,3-b]pyridin-4-yl)-1,2,3,4-tetrahydroiso-quinoline], in that order: 308 nM and 17300 nM.
In the case of `c1cc(-c2ccc(C3CCCCN3)cc2)c2cc[nH]c2n1` (centres unmarked) [Compound 271, 4-(4-(piperidin-2-yl)phenyl)-1H-pyrrolo[2,3-b]pyridine], the 50% inhibitory concentration (IC50) was 428 nM at AKT (setting [2]) and 14500 nM in test [1] (setting [3]).
For `NCc1ccc(-c2ccnc3[nH]cc(F)c23)cc1` [Compound 275, (4-(3-fluoro-1H-pyrrolo[2,3-b]pyridin-4-yl)phenyl) methanamine], in that order: 266 nM and 2060 nM.
With `NCc1ccc(-c2ccnc3[nH]cc(Cl)c23)cc1` [Compound 276, (4-(3-chloro-1H-pyrrolo[2,3-b]pyridin-4-yl)phenyl) methanamine], the IC50 on AKT (setting [2]) was 167 nM; in test [1] (setting [3]), 4140 nM.
In the same order, the values of `NCc1ccc(-c2ccnc3[nH]ccc23)cc1C(F)(F)F` [Compound 284, (4-(1H-pyrrolo[2,3-b]pyridin-4-yl)-2-(trifluoromethyl)phenyl) methanamine] are 1150 nM and above 50000 nM.
In the same order, the values of `NCc1ccc(-c2ccnc3[nH]ccc23)cc1` [Compound 287, (4-(1H-pyrrolo[2,3-b]pyridin-4-yl)phenyl) methanamine] are 1030 nM and above 50000 nM.
Consider `Cc1cc(-c2ccnc3[nH]cc(F)c23)cc(F)c1[C@@]1(O)[C@H](C)CN(C)C[C@@H]1C` [Compound 304, (3S,4s,5R)-4-(2-fluoro-4-(3-fluoro-1H-pyrrolo[2,3-b]pyridin-4-yl)-6-methylphenyl)-1,3,5-trimethylpiperidin-4-ol], for which the IC50 on AKT (setting [2]) was 271 nM; in test [1] (setting [3]), 26000 nM.
For `Cc1cc(-c2ccnc3[nH]cc(F)c23)cc(F)c1[C@@]1(O)[C@H](C)CN(C(C)C)C[C@@H]1C` [Compound 305, (3S,4s,5R)-4-(2-fluoro-4-(3-fluoro-1H-pyrrolo[2,3-b]pyridin-4-yl)-6-methylphenyl)-1-isopropyl-3,5-dimethylpiperidin-4-ol], the half-inhibitory concentration (IC50) on AKT (setting [2]) was 758 nM; in test [1] (setting [3]), 29400 nM.
For `COC(=O)c1c[nH]c2nccc(-c3cc(C)c([C@@]4(O)[C@H](C)CN(C5CCS(=O)(=O)CC5)C[C@@H]4C)c(F)c3)c12` [Compound 309, methyl 4-(4-((3S,4s,5R)-1-(1,1-dioxidotetrahydro-2H-thiopyran-4-yl)-4-hydroxy-3,5-dimethylpiperidin-4-yl)-3-fluoro-5-methylphenyl)-1H-pyrrolo[2,3-b]pyridine-3-carboxylate], in that order: 2270 nM and 39900 nM.
In the same order, the values of `COC(=O)c1c[nH]c2nccc(-c3cc(C)c([C@@]4(O)[C@H](C)CN(C(=O)CN)C[C@@H]4C)c(F)c3)c12` [Compound 310, methyl 4-(3-fluoro-4-((3S,4s,5R)-1-glycyl-4-hydroxy-3,5-dimethylpiperidin-4-yl)-5-methylphenyl)-1H-pyrrolo[2,3-b]pyridine-3-carboxylate] are 4420 nM and 49400 nM.
In the same order, the values of `Cc1cc(-c2ccnc3[nH]cc(F)c23)cc(F)c1[C@@]1(O)[C@H](C)CN(C(=O)[C@H](N)CO)C[C@@H]1C` [Compound 312, (R)-2-amino-1-((3S,4R,5R)-4-(2-fluoro-4-(3-fluoro-1H-pyrrolo[2,3-b]pyridin-4-yl)-6-methylphenyl)-4-hydroxy-3,5-dimethylpiperidin-1-yl)-3-hydroxypropan-1-one] are 153 nM and 12800 nM.
As for `Cc1cc(-c2ccnc3[nH]cc(F)c23)cc(F)c1[C@@]1(O)[C@H](C)CN(C(=O)[C@@H](CO)N(C)C)C[C@@H]1C` [Compound 313, (R)-2-(dimethylamino)-1-((3S,4S,5R)-4-(2-fluoro-4-(3-fluoro-1H-pyrrolo[2,3-b]pyridin-4-yl)-6-methylphenyl)-4-hydroxy-3,5-dimethylpiperidin-1-yl)-3-hydroxypropan-1-one], the IC50 on AKT (setting [2]) stood at 312 nM; in test [1] (setting [3]), 19200 nM.
For `OC1(c2ccc(-c3ccnc4[nH]cc(F)c34)cc2)CC2(CNC2)C1` [Compound 319, 6-(4-(3-fluoro-1H-pyrrolo[2,3-b]pyridin-4-yl)phenyl)-2-azaspiro[3.3]heptan-6-ol], in that order: 378 nM and 44800 nM.
Take `NCC(O)(c1ccc(Cl)cc1)c1ccc(-c2ccnc3[nH]ccc23)cc1` (centres unmarked) [Compound 1001, 1-(4-(1H-pyrrolo[2,3-b]pyridin-4-yl)phenyl)-2-amino-1-(4-chlorophenyl)ethan-1-ol]: the results for the IC50 (on AKT (setting [4]); in test [1] (setting [5])) were 0.6 nM and 42 nM, respectively.
For `NCC(O)(c1ccc(Cl)cc1)c1ccc(-c2ccnc3[nH]cc(F)c23)cc1` (centres unmarked) [Compound 1002, 2-amino-1-(4-chlorophenyl)-1-(4-(3-fluoro-1H-pyrrolo[2,3-b]pyridin-4-yl)phenyl)ethan-1-ol], in that order: 4.6 nM and 27 nM.
For `COC(=O)c1c[nH]c2nccc(-c3ccc(C(O)(CN)c4ccc(Cl)cc4)cc3)c12` (centres unmarked) [Compound 1004, Methyl 4-(4-(2-amino-1-(4-chlorophenyl)-1-hydroxyethyl)phenyl)-1H-pyrrolo[2,3-b]pyridine-3-carboxylate], in that order: 18.1 nM and 548 nM.
For `NCC(O)(c1ccc(Cl)cc1)c1ccc(-c2ccnc3[nH]cc(Br)c23)cc1` (centres unmarked) [Compound 1005, 2-amino-1-(4-(3-bromo-1H-pyrrolo[2,3-b]pyridin-4-yl)phenyl)-1-(4-chlorophenyl)ethan-1-ol], in that order: 1.7 nM and 2.9 nM.
For the compound `NCC(O)(c1ccc(Cl)cc1)c1ccc(-c2ccnc3[nH]cc(-c4ccccc4)c23)cc1` (centres unmarked) [Compound 1006, 2-amino-1-(4-chlorophenyl)-1-(4-(3-phenyl-1H-pyrrolo[2,3-b]pyridin-4-yl)phenyl)ethan-1-ol], the half-maximal inhibitory concentration (IC50) on AKT (setting [4]) came out at 230 nM; in test [1] (setting [5]), 135 nM.
For `NCC(O)(c1ccc(Cl)cc1)c1ccc(-c2ccnc3[nH]cc(-c4cccnc4)c23)cc1` (centres unmarked) [Compound 1007, 2-amino-1-(4-chlorophenyl)-1-(4-(3-(pyridin-3-yl)-1H-pyrrolo[2,3-b]pyridin-4-yl)phenyl)ethan-1-ol], in that order: 35.2 nM and 153 nM.

The record behind these values is patent US20250361230A1, “LATS Inhibitors and Uses Thereof” (The USA, as Represented by the Secretary, Dept. of Heath …, priority 2022, published 2025).
